Source: PubChem BioAssay (NCI)
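Exposure lasted 48 hours, with cells grown in 96-well plates and compounds tested at five concentrations. TGI denotes the concentration required for complete inhibition of growth.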

Key:
Assay in all cases: growth of human tumour cells (NCI), 48 h
[1] = test system: A498 renal
[2] = test system: COLO 205 colon
[3] = test system: ACHN renal
[4] = test system: EKVX NSCLC
[5] = test system: SW-620 colon
[6] = test system: LOX IMVI melanoma
[7] = test system: HOP-92 NSCLC
[8] = test system: HL-60(TB) leukemia
[9] = test system: SNB-19 CNS
[10] = test system: SR leukemia
[11] = test system: NCI-H522 lung
[12] = test system: MALME-3M melanoma
[13] = test system: SK-MEL-2 melanoma
[14] = test system: DLD-1 colon
[15] = test system: OVCAR-5 ovarian
[16] = test system: DMS 114 small cell lung
[17] = test system: IGROV1 ovarian
[18] = test system: A549 NSCLC
[19] = test system: KM12 colon
[20] = test system: HOP-62 NSCLC
[21] = test system: NCI-H226 lung
[22] = test system: HCT-15 colon
[23] = test system: M14 melanoma
[24] = test system: SF-268 CNS
[25] = test system: CAKI-1 renal
[26] = test system: SF-539 CNS
[27] = test system: U251 CNS
[28] = test system: M19-MEL melanoma
[29] = test system: SN12C renal
[30] = test system: OVCAR-4 ovarian
[31] = test system: TK-10 renal
[32] = test system: K-562 leukemia
[33] = test system: UO-31 renal
[34] = test system: HCC-2998 colon
[35] = test system: OVCAR-3 ovarian
[36] = test system: UACC-257 melanoma
[37] = test system: NCI-H460 lung
[38] = test system: SK-MEL-5 melanoma
[39] = test system: MOLT-4 leukemia
[40] = test system: HOP-18 NSCLC
[41] = test system: SNB-78 CNS
[42] = test system: CCRF-CEM leukemia
[43] = test system: DMS 273 small cell lung
[44] = test system: UACC-62 melanoma
[45] = test system: XF 498 CNS
[46] = test system: HCT-116 colon
[47] = test system: OVCAR-8 ovarian
[48] = test system: RPMI-8226 leukemia
[49] = test system: SK-MEL-28 melanoma
[50] = test system: 786-0 renal
[51] = test system: KM20L2 colon
[52] = test system: NCI-H23 lung
[53] = test system: SNB-75 CNS
[54] = test system: LXFL 529 NSCLC
[55] = test system: RXF 393 renal
[56] = test system: SF-295 CNS
[57] = test system: SK-OV-3 ovarian
[58] = test system: HT29 colon

`C[C@]12CC[C@H](OCCC#N)CC1=CC[C@@H]1C2CC[C@]2(C)/C(=N/OCCC#N)CCC12` (some centres not stated) was tested, and the TGI [1] was over 100 µM, the TGI [2] was over 100 µM and the TGI [3] was over 100 µM. For the same molecule, the TGI [4] was over 100 µM, the TGI [5] was over 100 µM and the TGI [6] was over 100 µM. For the same molecule, the TGI [7] was over 64.4 µM, the TGI [8] was over 100 µM and the TGI [9] was 97.9 µM. The TGI [10] was over 100 µM, the TGI [11] was over 100 µM and the TGI [12] was over 100 µM. The TGI [13] was over 100 µM, the TGI [14] was over 100 µM and the TGI [15] was over 100 µM. It also gave a TGI [16] of over 100 µM, a TGI [17] of over 100 µM and a TGI [18] of over 100 µM. The TGI [19] was over 100 µM, the TGI [20] was over 100 µM and the TGI [21] was over 100 µM. It also gave a TGI [22] of over 100 µM, a TGI [23] of over 100 µM and a TGI [24] of over 100 µM. It also gave a TGI [25] of over 100 µM, a TGI [26] of over 100 µM and a TGI [27] of over 100 µM. The TGI [28] was over 100 µM, the TGI [29] was over 100 µM and the TGI [30] was 97.7 µM. For the same molecule, the TGI [31] was over 88.6 µM, the TGI [32] was over 100 µM and the TGI [33] was over 100 µM. The TGI [34] was over 100 µM, the TGI [35] was over 100 µM and the TGI [36] was over 100 µM. It also gave a TGI [37] of over 100 µM, a TGI [38] of over 100 µM and a TGI [39] of over 100 µM. It also gave a TGI [40] of over 100 µM, a TGI [41] of over 90 µM and a TGI [42] of over 100 µM. It also gave a TGI [43] of over 100 µM, a TGI [44] of over 100 µM and a TGI [45] of 48.9 µM. For the same molecule, the TGI [46] was over 100 µM, the TGI [47] was over 100 µM and the TGI [48] was over 100 µM. For the same molecule, the TGI [49] was over 100 µM, the TGI [50] was over 76.6 µM and the TGI [51] was over 100 µM. It also gave a TGI [52] of over 100 µM, a TGI [53] of over 78.9 µM and a TGI [54] of over 100 µM. It also gave a TGI [55] of over 73.9 µM, a TGI [56] of over 100 µM and a TGI [57] of over 100 µM.

With `O=C(O)CC12C3C4C5C3C1C5C42` (configuration not stated) the TGI [1] was over 100 µM, the TGI [2] was over 100 µM and the TGI [3] was over 100 µM. It also gave a TGI [4] of over 100 µM, a TGI [5] of over 100 µM and a TGI [6] of over 100 µM. It also gave a TGI [58] of over 100 µM, a TGI [8] of over 100 µM and a TGI [9] of over 100 µM. The TGI [11] was over 100 µM, the TGI [12] was over 100 µM and the TGI [13] was over 100 µM. It also gave a TGI [14] of over 100 µM, a TGI [15] of over 100 µM and a TGI [16] of over 100 µM. It also gave a TGI [17] of over 100 µM, a TGI [18] of over 100 µM and a TGI [19] of over 100 µM. It also gave a TGI [20] of over 100 µM, a TGI [22] of over 100 µM and a TGI [23] of over 100 µM. The TGI [24] was over 100 µM, the TGI [25] was over 100 µM and the TGI [26] was over 100 µM. The TGI [27] was over 100 µM, the TGI [28] was over 100 µM and the TGI [29] was over 100 µM. It also gave a TGI [30] of over 100 µM, a TGI [31] of over 100 µM and a TGI [32] of over 100 µM. For the same molecule, the TGI [33] was over 100 µM, the TGI [34] was over 100 µM and the TGI [35] was over 100 µM. The TGI [36] was over 100 µM, the TGI [37] was over 100 µM and the TGI [38] was over 100 µM. It also gave a TGI [39] of over 100 µM, a TGI [41] of over 100 µM and a TGI [42] of over 100 µM. The TGI [43] was over 100 µM, the TGI [44] was over 100 µM and the TGI [45] was over 100 µM. The TGI [46] was over 100 µM, the TGI [47] was over 100 µM and the TGI [48] was over 100 µM. It also gave a TGI [49] of over 100 µM, a TGI [50] of over 100 µM and a TGI [51] of over 100 µM. For the same molecule, the TGI [52] was over 100 µM, the TGI [53] was over 100 µM and the TGI [54] was over 100 µM. The TGI [56] was over 100 µM and the TGI [57] was over 100 µM.

For `CCOC(=O)NC(=O)c1cn(CCCOC(=O)CCCCCCCCCCC(=O)OCCCn2cc(C(=O)NC(=O)OCC)c(=O)n(C)c2=O)c(=O)n(C)c1=O`, the TGI [1] was over 100 µM, the TGI [2] was over 100 µM and the TGI [3] was over 100 µM. For the same molecule, the TGI [4] was over 100 µM, the TGI [5] was over 100 µM and the TGI [6] was over 100 µM. It also gave a TGI [7] of over 100 µM, a TGI [58] of over 100 µM and a TGI [8] of over 100 µM. For the same molecule, the TGI [9] was over 100 µM, the TGI [10] was over 100 µM and the TGI [11] was over 100 µM. The TGI [12] was over 100 µM, the TGI [13] was over 100 µM and the TGI [14] was over 100 µM. The TGI [15] was over 100 µM, the TGI [16] was over 100 µM and the TGI [17] was over 100 µM. It also gave a TGI [18] of over 100 µM, a TGI [19] of over 100 µM and a TGI [20] of over 100 µM. For the same molecule, the TGI [21] was over 100 µM, the TGI [22] was over 100 µM and the TGI [23] was over 100 µM. For the same molecule, the TGI [24] was over 100 µM, the TGI [25] was over 100 µM and the TGI [26] was over 100 µM. The TGI [27] was over 100 µM, the TGI [28] was over 100 µM and the TGI [29] was over 100 µM. The TGI [30] was over 100 µM, the TGI [31] was over 100 µM and the TGI [32] was over 100 µM. The TGI [33] was over 100 µM, the TGI [34] was over 100 µM and the TGI [35] was over 100 µM. The TGI [36] was over 100 µM, the TGI [37] was over 100 µM and the TGI [38] was over 100 µM. It also gave a TGI [39] of over 100 µM, a TGI [40] of over 100 µM and a TGI [41] of over 100 µM. It also gave a TGI [42] of over 100 µM, a TGI [43] of over 100 µM and a TGI [44] of over 100 µM. For the same molecule, the TGI [45] was over 100 µM, the TGI [46] was over 100 µM and the TGI [47] was over 100 µM. The TGI [48] was over 100 µM, the TGI [49] was over 100 µM and the TGI [50] was over 100 µM. For the same molecule, the TGI [52] was over 100 µM, the TGI [53] was over 100 µM and the TGI [54] was over 100 µM. The TGI [55] was over 100 µM, the TGI [56] was over 100 µM and the TGI [57] was over 100 µM.
